This test relates to Plasmodium berghei. In words: Luciferase/luciferin-expressing antifolate-resistant parasites were used to infect a culture of HepG2 cells that were pre-incubated with compounds. Infected hepatocytes emit light due to the luciferase reaction. Assay results are presented as the percent inhibition of light emission compared to control. […]. It is filed as functional. The settings on record: sporozoite; for IC90: read-out: LUCIFERASE INFECTION ASSAY - IC90.

Where [1] appears, read: read-out: LUCIFERASE INFECTION ASSAY - IC50.

This is an account of results in ChEMBL document CHEMBL4483862, “Open-source discovery of chemical leads for next-generation chemoprotective antimalarials” (2018).

SMILES strings stand for the structures.

For the compound `Cn1ccc2cc(-c3cnc4cnc(-c5ccc(F)c(Cl)c5)cn34)ccc21`, the IC90 (commonly the concentration at which the effect reaches the 90% level) was 3.55 µM. In addition, the IC50 (commonly the concentration that gives 50% inhibition) (HEPG2TOX_HILL_SLOPE 3.52, HEPG2TOX_R_SQUARED 0.929, PBLUC_HILL_SLOPE 14.4, PBLUC_R_SQUARED 0.566, read-out: LUCIFERASE INFECTION ASSAY - IC50) came to 3.05 µM.

In the case of `Cc1cc(C(=O)CSC(c2ccccc2)c2ccccc2)c(C)n1C`, the 90% effect concentration (IC90) is > 10 µM. Also, the IC50 under setting [1] was > 10 µM.

Turning to `CC1c2ccsc2CCN1C(=S)NC(=O)c1cccs1` (stereo not drawn), the IC90 was > 10.2 µM. The concentration for half-maximal inhibition (IC50) (FFLUC_HILL_SLOPE 16.3, FFLUC_R_SQUARED 0.288, HEPG2TOX_HILL_SLOPE 6.88, HEPG2TOX_R_SQUARED 0.689, PBLUC_HILL_SLOPE 3.81, PBLUC_R_SQUARED 0.3, read-out: LUCIFERASE INFECTION ASSAY - IC50) worked out at 6.21 µM.

For the compound `COC(CNC(=S)c1c(-c2ccc(Cl)cc2)c2c3n(c(-c4cccc(S(=O)(=O)N5CCOCC5)c4)nn13)CCCC2)OC`, the IC90 turned out to be 0.453 µM. The IC50 (FFLUC_HILL_SLOPE 2.83, FFLUC_R_SQUARED 0.688, HEPG2TOX_HILL_SLOPE 16.1, HEPG2TOX_R_SQUARED 0.632, PBLUC_HILL_SLOPE 13, PBLUC_R_SQUARED 0.649, read-out: LUCIFERASE INFECTION ASSAY - IC50) is 0.383 µM.

In the case of `Cc1ccc(N/C=C(\C#N)S(=O)(=O)c2ccc(Cl)cc2)cc1`, the IC90 is > 9.92 µM. The IC50 under setting [1] is > 9.92 µM.

Take `O=c1c2cc(Cl)cc(Cl)c2nc(-c2cccc(C(F)(F)F)c2)n1O`: the IC90 is > 8.8 µM. Moreover, the IC50 (HEPG2TOX_HILL_SLOPE 1.01, HEPG2TOX_R_SQUARED 0.454, PBLUC_HILL_SLOPE 14.5, PBLUC_R_SQUARED 0.382, read-out: LUCIFERASE INFECTION ASSAY - IC50) was 8.11 µM.

Turning to `Cc1ccc(-c2nnc3c(C(F)(F)F)nc4ccccc4n23)cc1`, the IC90 is > 10.1 µM. Moreover, for the setting “HEPG2TOX_HILL_SLOPE 6.88, HEPG2TOX_R_SQUARED 0.907, PBLUC_HILL_SLOPE 7.21, PBLUC_R_SQUARED 0.0351, read-out: LUCIFERASE INFECTION ASSAY - IC50”, the IC50 came to 8.59 µM.

`CC(NC(=O)Cn1c2ccccc2c(=O)c2ccccc21)c1cc2ccccc2o1` (stereo not drawn): the concentration for an effect of 90% (IC90) is > 10 µM. Besides, the IC50 under setting [1] turned out to be 6.06 µM.

As to `O=C(CCc1ccc2c(c1)OCO2)Nc1nc(-c2ccc(Br)s2)cs1`, the IC90 is > 10 µM. In addition, the IC50 (PBLUC_HILL_SLOPE 0.607, PBLUC_R_SQUARED 0.509, read-out: LUCIFERASE INFECTION ASSAY - IC50) amounted to 5.99 µM.

`CC(C)(C)OC(=O)NC1CCN(C(=O)Nc2cc(Cl)cc(Cl)c2)CC1`: the IC90 was > 8.5 µM. For the same compound, the half-maximal inhibitory concentration (IC50) (PBLUC_HILL_SLOPE 7.08, PBLUC_R_SQUARED 0.106, read-out: LUCIFERASE INFECTION ASSAY - IC50) was > 8.5 µM.

`CCS(=O)(=O)c1ncc(Cl)c(C(=O)Nc2ccc(C(=O)OC)cc2)n1`: the IC90 worked out at 4.66 µM. Also, the IC50 (HEPG2TOX_HILL_SLOPE 3.26, HEPG2TOX_R_SQUARED 0.643, PBLUC_HILL_SLOPE 9.13, PBLUC_R_SQUARED 0.474, read-out: LUCIFERASE INFECTION ASSAY - IC50) amounted to 3.67 µM.

Turning to `Nc1cccc(OCc2cccnc2)c1`, the IC90 is > 10 µM. Moreover, the IC50 under setting [1] was > 10 µM.

Consider `Cn1ccc2cc(-c3cn4c(-c5cccc(Cl)c5)cnc4cn3)ccc21`, for which the IC90 turned out to be 2.86 µM. In addition, the 50% inhibitory concentration (IC50) (HEPG2TOX_HILL_SLOPE 1.09, HEPG2TOX_R_SQUARED 0.945, PBLUC_HILL_SLOPE 1.73, PBLUC_R_SQUARED 0.845, read-out: LUCIFERASE INFECTION ASSAY - IC50) was 0.804 µM.

Regarding `O=C(Nc1cc(C(F)(F)F)cc(C(F)(F)F)c1)c1csc([N+](=O)[O-])c1`, the IC90 came to 7.1 µM. In addition, under “HEPG2TOX_HILL_SLOPE 11, HEPG2TOX_R_SQUARED 0.957, PBLUC_HILL_SLOPE 1.57, PBLUC_R_SQUARED 0.511, read-out: LUCIFERASE INFECTION ASSAY - IC50”, the concentration for half-maximal inhibition (IC50) came to 1.75 µM.

Turning to `Cc1cc(=O)c(C(=O)Nc2cc(C(F)(F)F)ccc2N2CCCCC2)nn1-c1ccccc1Cl`, the IC90 is > 10 µM. Moreover, under setting [1], the IC50 is > 10 µM.

For `N#Cc1ncn(CC(=O)NCC2(N3CCOCC3)CCCCC2)n1`, the IC90 was > 10 µM. For the same compound, under “HEPG2TOX_HILL_SLOPE 0.0925, HEPG2TOX_R_SQUARED 0.157, read-out: LUCIFERASE INFECTION ASSAY - IC50”, the IC50 is > 10 µM.

As for `Cc1nc(N2CCC(C)CC2)nc2c1C(=O)CC(/C=C/c1ccccc1)C2` (stereo not drawn), the IC90 was > 9.13 µM. In addition, the IC50 under setting [1] is > 9.13 µM.

For `Cc1ccc(N/N=C(\C=N\N)C(=O)c2ccc(Cl)cc2)cc1`, the IC90 was > 10.5 µM. Also, under “HEPG2TOX_HILL_SLOPE 1.68, HEPG2TOX_R_SQUARED 0.854, PBLUC_HILL_SLOPE 3.07, PBLUC_R_SQUARED 0.149, read-out: LUCIFERASE INFECTION ASSAY - IC50”, the IC50 was determined as 5.16 µM.

For the compound `COc1ccc(CCC(=O)NNC(=O)c2ccc3ccccc3n2)cc1Br`, the IC90 came to 5.65 µM. Also, the IC50 (PBLUC_HILL_SLOPE 3.11, PBLUC_R_SQUARED 0.471, read-out: LUCIFERASE INFECTION ASSAY - IC50) came out at 2.79 µM.

With `Cc1ccc2c(c1)/C(=N\NC(=O)c1nc(Cl)c(Cl)c(N)c1Cl)C(=O)N2`, the IC90 is > 10 µM. Besides, the half-inhibitory concentration (IC50) (FFLUC_HILL_SLOPE 3.8, FFLUC_R_SQUARED 0.785, read-out: LUCIFERASE INFECTION ASSAY - IC50) is > 10 µM.

`O=C(Nc1cccc(Cl)c1)Nc1ccccc1SCc1ncc(C(F)(F)F)cc1Cl`: the IC90 was > 6.99 µM. Besides, the IC50 under setting [1] is > 6.99 µM.

For the compound `Cc1nc2ccccn2c1C(=O)N/N=C/c1c(-c2ccccc2)n(-c2ccccc2)c2ccccc12`, the IC90 was > 10 µM. For the same compound, the IC50 under setting [1] was > 10 µM.

As to `Cc1nc2ccc(N/N=C(/C(=O)Nc3c(Cl)cccc3Cl)C(=O)c3ccccc3)cc2s1`, the IC90 was 8.28 µM. Under setting [1], the IC50 came to 5.17 µM.

In the case of `Cc1cc(C(=O)Cn2c(CO)nc3ccccc32)c(C)n1Cc1ccco1`, the 90% effect concentration (IC90) is > 10 µM. Also, the IC50 (HEPG2TOX_HILL_SLOPE 21, HEPG2TOX_R_SQUARED 0.739, PBLUC_HILL_SLOPE 1.98, PBLUC_R_SQUARED 0.61, read-out: LUCIFERASE INFECTION ASSAY - IC50) turned out to be 3.71 µM.

`NC(CCc1ccccc1)c1csc(NC(=O)Nc2ccccc2)n1` (stereo not drawn): the IC90 was > 9.36 µM. Besides, the IC50 (PBLUC_HILL_SLOPE 42.7, PBLUC_R_SQUARED 0.194, read-out: LUCIFERASE INFECTION ASSAY - IC50) was 9.14 µM.

Take `C#CCOc1ccccc1/C=C1\SC(NC2CCCCC2)=NC1=O`: the IC90 stood at 0.4 µM. The IC50 (HEPG2TOX_HILL_SLOPE 10.3, HEPG2TOX_R_SQUARED 0.343, PBLUC_HILL_SLOPE 2.57, PBLUC_R_SQUARED 0.554, read-out: LUCIFERASE INFECTION ASSAY - IC50) came out at 0.17 µM.

In the case of `CS(=O)(=O)Nc1cccc(-c2cn3c(-c4cccc(CO)c4)cnc3cn2)c1`, the IC90 is > 8.37 µM. For the same compound, the IC50 under setting [1] was > 8.37 µM.

Take `CCC(NC(=O)NCc1ccccc1S(=O)(=O)N1CCCCC1)c1ccc(Cl)cc1` (stereo not drawn): the IC90 was > 10 µM. Under “PBLUC_HILL_SLOPE 1.14, PBLUC_R_SQUARED 0.117, read-out: LUCIFERASE INFECTION ASSAY - IC50”, the IC50 was > 10 µM.

Consider `CCc1sc(C(=O)Nc2cnc3ccccc3c2)cc1C`, for which the concentration for an effect of 90% (IC90) was > 10 µM. Further, the concentration for half-maximal inhibition (IC50) (HEPG2TOX_HILL_SLOPE 1.13, HEPG2TOX_R_SQUARED 0.365, PBLUC_HILL_SLOPE 0.275, PBLUC_R_SQUARED 0.613, read-out: LUCIFERASE INFECTION ASSAY - IC50) stood at 0.46 µM.

For `Cn1nc(C(C)(C)C)cc1C(=O)Nc1ccc2nc(-c3cccnc3)nn2c1`, the IC90 was > 10 µM. The IC50 (PBLUC_HILL_SLOPE 11.9, PBLUC_R_SQUARED 0.235, read-out: LUCIFERASE INFECTION ASSAY - IC50) was > 10 µM.

With `Cc1cc(O)nc(N/N=C/c2c(C)nn(-c3ccccc3Cl)c2Cl)n1`, the concentration for an effect of 90% (IC90) came out at 2.19 µM. For the same compound, the IC50 (PBLUC_HILL_SLOPE 2.61, PBLUC_R_SQUARED 0.512, read-out: LUCIFERASE INFECTION ASSAY - IC50) was 0.943 µM.

Turning to `c1ccc(CNCc2cn(-c3ccccc3)nc2-c2ccncc2)cc1`, the 90% effect concentration (IC90) was > 8.76 µM. For the same compound, the IC50 (PBLUC_HILL_SLOPE 0.853, PBLUC_R_SQUARED 0.208, read-out: LUCIFERASE INFECTION ASSAY - IC50) is > 8.76 µM.

Regarding `CC(C)(C(=O)NCCc1ccccc1)n1cc(-c2ccc3c(c2)OCCO3)cn1`, the IC90 was > 10 µM. Further, under setting [1], the half-inhibitory concentration (IC50) is > 10 µM.

Regarding `OCc1ccc(-c2cnc3cnc(-c4cnn(Cc5ccccc5)c4)cn23)cc1`, the IC90 is > 8.65 µM. Besides, the IC50 under setting [1] was > 8.65 µM.

Regarding `CCOC(=O)c1c(-c2ccccc2)csc1NC(=O)C(C)OC(=O)c1ccccc1NS(=O)(=O)c1cccc(C(F)(F)F)c1` (stereo not drawn), the IC90 was > 10 µM. In addition, the IC50 under setting [1] was > 10 µM.

With `N#Cc1cc(Br)c(OCc2c(F)cccc2Cl)c(Br)c1`, the IC90 worked out at 6.23 µM. Also, the 50% inhibitory concentration (IC50) (HEPG2TOX_HILL_SLOPE 16.7, HEPG2TOX_R_SQUARED 0.384, PBLUC_HILL_SLOPE 6.36, PBLUC_R_SQUARED 0.0513, read-out: LUCIFERASE INFECTION ASSAY - IC50) is 4.41 µM.

For `OCCCNc1nn2c(-c3ccccc3Cl)cnc2s1`, the IC90 was > 10.7 µM. Moreover, the IC50 under setting [1] was > 10.7 µM.

For the compound `O=C(CC1Sc2ccccc2NC1=O)NCCCn1ccc2ccccc21` (stereo not drawn), the IC90 is 3.47 µM. Also, the IC50 (HEPG2TOX_HILL_SLOPE 0.0908, HEPG2TOX_R_SQUARED 0.322, PBLUC_HILL_SLOPE 2.29, PBLUC_R_SQUARED 0.881, read-out: LUCIFERASE INFECTION ASSAY - IC50) worked out at 1.33 µM.

Turning to `CC(Sc1nnc(-c2ccc(C(C)(C)C)cc2)n1Cc1ccco1)C(=O)Nc1ccc(Cl)cn1` (stereo not drawn), the IC90 is > 10 µM. The IC50 under setting [1] is > 10 µM.
